{"source": "patent US8192962B2", "about": "“Processes for detecting toxic substances” (Daikin Industries, Ltd., priority 2001, dated 2012)", "system": "Energy system protein genes", "assay": "DNA chip mRNA expression in yeast, energy system protein genes (Table 4)", "format": "cell-based, Saccharomyces cerevisiae S288C", "method": "Yeast (Saccharomyces cerevisiae S288C (α SUC2mal mel gap2 CUP1)) were incubated at 25° C. on YPD medium (yeast extract 1%, polypepton 2%, glucose 2%). One of toxic chemical substances was added to the cells at logarithmic growth phase, and the cells were further incubated for two hours. Cells were cultured without any chemical substance in the same condition, and were used as control. Concentrations of the chemical substances were defined to inhibit the growth of the yeast but not lead to death.\nAfter completion of the incubation, the culture was centrifuged to collect the cells. To the cells, sodium acetate buffer (50 mM sodium acetate, 10 mM EDTA, 1% SDS) was added, and the mixture was shaken at 65° C. for five minutes, followed by returning to room temperature, and obtaining the supernatant, of which the procedures were repeated two times. To the supernatant, ½ amount of a solution of phenol/chloroform was added, and the mixture was centrifuged to give a supernatant, which was added with an equal amount of chloroform, and the mixture was centrifuged to give a supernatant. To the supernatant, an equal amount of isopropanol containing 0.3 M sodium acetate was added, and the mixture was allowed to stand at room temperature for 30 minutes, after which the mixture was centrifuged to give a sediment of the whole RNAs. Seventy % ethanol was added to the sediment, and the mixture was again centrifuged to give a sediment, which was then dried and dissolved in water. mRNA was isolated from the whole RNAs as followings. In view of the fact that a poly A chain is attached to the 3′ terminus of mRNA, a polynucleotide having a poly T structure which was immobilized on the surface of latex beads was used to trap the mRNA, and then the mRNA was washed and eluted with spine column (Oligotex-dT30<Super>mRNA Purification Kit, Takara). Reverse transcription of the mRNA was conducted with a reverse transcriptase (Super Script II Reverse Transcriptase; catalogue No. 18064-014, GibcoBRL) using fluorescence-labeled nucleotides to give cDNAs that were introduced with Cy3-dUTP or Cy5-dUTP during the reverse transcription.\nThe labeled cDNAs were dissolved in TE buffer (10mM Tris-HCl/1 mM EDTA, pH8.0), and the solution was dropped on the DNA chip containing the whole genes of yeast (DNA Chip Research Inc. Japan) so that the cDNAs were hybridized on the DNA chip at 65° C. for over 12 hours. The fluoresces intensity of the DNA chip was read with a scanner, and the ratio relative to the fluorescence intensity resulting from the absence of chemical substance was estimated as the following, which is shown in Tables 1 to 9: […]"}
{"smiles": "[Cl][Cd][Cl]", "note": "[(2), CdCl2]", "values": [{"measurement": "The level of expressed mRNA in the presence of chemical substance/The level of expressed mRNA in the absence of chemical substance", "setting": "yeast gene YJR048W", "result": 0.9}, {"measurement": "The level of expressed mRNA in the presence of chemical substance/The level of expressed mRNA in the absence of chemical substance", "setting": "yeast gene YJR121W, cells incubated two hours with the chemical substance", "result": 1.1}, {"measurement": "The level of expressed mRNA in the presence of chemical substance/The level of expressed mRNA in the absence of chemical substance", "setting": "yeast gene YJR155W", "result": 3.7}, {"measurement": "The level of expressed mRNA in the presence of chemical substance/The level of expressed mRNA in the absence of chemical substance", "setting": "yeast gene YKL016C, cells incubated two hours with the chemical substance", "result": 1.3}, {"measurement": "The level of expressed mRNA in the presence of chemical substance/The level of expressed mRNA in the absence of chemical substance", "setting": "yeast gene YKL060C, cells incubated two hours with the chemical substance", "result": 0.8}, {"measurement": "The level of expressed mRNA in the presence of chemical substance/The level of expressed mRNA in the absence of chemical substance", "setting": "yeast gene YKL141W, cells incubated two hours with the chemical substance", "result": 1.1}, {"measurement": "The level of expressed mRNA in the presence of chemical substance/The level of expressed mRNA in the absence of chemical substance", "setting": "yeast gene YKL148C, cells incubated two hours with the chemical substance", "result": 0.8}, {"measurement": "The level of expressed mRNA in the presence of chemical substance/The level of expressed mRNA in the absence of chemical substance", "setting": "yeast gene YKR009C, cells incubated two hours with the chemical substance", "result": 1.2}, {"measurement": "The level of expressed mRNA in the presence of chemical substance/The level of expressed mRNA in the absence of chemical substance", "setting": "yeast gene YKR058W, cells incubated two hours with the chemical substance, 25° C., YPD medium", "result": 0.9}, {"measurement": "The level of expressed mRNA in the presence of chemical substance/The level of expressed mRNA in the absence of chemical substance", "setting": "yeast gene YKR097W", "result": 2.4}, {"measurement": "The level of expressed mRNA in the presence of chemical substance/The level of expressed mRNA in the absence of chemical substance", "setting": "yeast gene YLL041C, cells incubated two hours with the chemical substance", "result": 0.5}, {"measurement": "The level of expressed mRNA in the presence of chemical substance/The level of expressed mRNA in the absence of chemical substance", "setting": "yeast gene YLR038C, cells incubated two hours with the chemical substance", "result": 1.1}, {"measurement": "The level of expressed mRNA in the presence of chemical substance/The level of expressed mRNA in the absence of chemical substance", "setting": "yeast gene YLR044C, cells incubated two hours with the chemical substance", "result": 0.6}, {"measurement": "The level of expressed mRNA in the presence of chemical substance/The level of expressed mRNA in the absence of chemical substance", "setting": "yeast gene YLR134W, cells incubated two hours with the chemical substance", "result": 0.6}, {"measurement": "The level of expressed mRNA in the presence of chemical substance/The level of expressed mRNA in the absence of chemical substance", "setting": "yeast gene YLR258W, cells incubated two hours with the chemical substance", "result": 1.0}, {"measurement": "The level of expressed mRNA in the presence of chemical substance/The level of expressed mRNA in the absence of chemical substance", "setting": "yeast gene YLR284C, cells incubated two hours with the chemical substance", "result": 1.0}, {"measurement": "The level of expressed mRNA in the presence of chemical substance/The level of expressed mRNA in the absence of chemical substance", "setting": "yeast gene YLR295C, cells incubated two hours with the chemical substance, 25° C., YPD medium", "result": 1.1}, {"measurement": "The level of expressed mRNA in the presence of chemical substance/The level of expressed mRNA in the absence of chemical substance", "setting": "yeast gene YLR304C, cells incubated two hours with the chemical substance", "result": 0.6}, {"measurement": "The level of expressed mRNA in the presence of chemical substance/The level of expressed mRNA in the absence of chemical substance", "setting": "yeast gene YLR345W", "result": 1.4}, {"measurement": "The level of expressed mRNA in the presence of chemical substance/The level of expressed mRNA in the absence of chemical substance", "setting": "yeast gene YLR354C, cells incubated two hours with the chemical substance", "result": 2.5}, {"measurement": "The level of expressed mRNA in the presence of chemical substance/The level of expressed mRNA in the absence of chemical substance", "setting": "yeast gene YLR377C, cells incubated two hours with the chemical substance", "result": 2.6}, {"measurement": "The level of expressed mRNA in the presence of chemical substance/The level of expressed mRNA in the absence of chemical substance", "setting": "yeast gene YLR395C, cells incubated two hours with the chemical substance", "result": 1.3}, {"measurement": "The level of expressed mRNA in the presence of chemical substance/The level of expressed mRNA in the absence of chemical substance", "setting": "yeast gene YML087C", "result": 1.6}, {"measurement": "The level of expressed mRNA in the presence of chemical substance/The level of expressed mRNA in the absence of chemical substance", "setting": "yeast gene YML120C, cells incubated two hours with the chemical substance", "result": 1.2}, {"measurement": "The level of expressed mRNA in the presence of chemical substance/The level of expressed mRNA in the absence of chemical substance", "setting": "yeast gene YML129C, cells incubated two hours with the chemical substance", "result": 0.9}, {"measurement": "The level of expressed mRNA in the presence of chemical substance/The level of expressed mRNA in the absence of chemical substance", "setting": "yeast gene YMR073C, cells incubated two hours with the chemical substance", "result": 1.1}, {"measurement": "The level of expressed mRNA in the presence of chemical substance/The level of expressed mRNA in the absence of chemical substance", "setting": "yeast gene YMR118C", "result": 2.9}, {"measurement": "The level of expressed mRNA in the presence of chemical substance/The level of expressed mRNA in the absence of chemical substance", "setting": "yeast gene YMR205C, cells incubated two hours with the chemical substance", "result": 0.7}, {"measurement": "The level of expressed mRNA in the presence of chemical substance/The level of expressed mRNA in the absence of chemical substance", "setting": "yeast gene YMR261C, cells incubated two hours with the chemical substance", "result": 1.6}, {"measurement": "The level of expressed mRNA in the presence of chemical substance/The level of expressed mRNA in the absence of chemical substance", "setting": "yeast gene YMR267W, cells incubated two hours with the chemical substance, 25° C., YPD medium", "result": 1.8}, {"measurement": "The level of expressed mRNA in the presence of chemical substance/The level of expressed mRNA in the absence of chemical substance", "setting": "yeast gene YMR323W, cells incubated two hours with the chemical substance", "result": 1.1}, {"measurement": "The level of expressed mRNA in the presence of chemical substance/The level of expressed mRNA in the absence of chemical substance", "setting": "yeast gene YNL071W", "result": 0.9}, {"measurement": "The level of expressed mRNA in the presence of chemical substance/The level of expressed mRNA in the absence of chemical substance", "setting": "yeast gene YNL202W, cells incubated two hours with the chemical substance", "result": 1.3}, {"measurement": "The level of expressed mRNA in the presence of chemical substance/The level of expressed mRNA in the absence of chemical substance", "setting": "yeast gene YNL241C", "result": 2.5}, {"measurement": "The level of expressed mRNA in the presence of chemical substance/The level of expressed mRNA in the absence of chemical substance", "setting": "yeast gene YNL331C", "result": 3.6}, {"measurement": "The level of expressed mRNA in the presence of chemical substance/The level of expressed mRNA in the absence of chemical substance", "setting": "yeast gene YOL086C, cells incubated two hours with the chemical substance", "result": 0.5}, {"measurement": "The level of expressed mRNA in the presence of chemical substance/The level of expressed mRNA in the absence of chemical substance", "setting": "yeast gene YOL165C", "result": 4.5}, {"measurement": "The level of expressed mRNA in the presence of chemical substance/The level of expressed mRNA in the absence of chemical substance", "setting": "yeast gene YOR142W, cells incubated two hours with the chemical substance", "result": 1.2}, {"measurement": "The level of expressed mRNA in the presence of chemical substance/The level of expressed mRNA in the absence of chemical substance", "setting": "yeast gene YOR178C, cells incubated two hours with the chemical substance", "result": 1.3}, {"measurement": "The level of expressed mRNA in the presence of chemical substance/The level of expressed mRNA in the absence of chemical substance", "setting": "yeast gene YOR388C, cells incubated two hours with the chemical substance", "result": 1.6}, {"measurement": "The level of expressed mRNA in the presence of chemical substance/The level of expressed mRNA in the absence of chemical substance", "setting": "yeast gene YPL031C, cells incubated two hours with the chemical substance", "result": 2.0}, {"measurement": "The level of expressed mRNA in the presence of chemical substance/The level of expressed mRNA in the absence of chemical substance", "setting": "yeast gene YPL061W, cells incubated two hours with the chemical substance", "result": 1.4}, {"measurement": "The level of expressed mRNA in the presence of chemical substance/The level of expressed mRNA in the absence of chemical substance", "setting": "yeast gene YPL088W", "result": 1.3}, {"measurement": "The level of expressed mRNA in the presence of chemical substance/The level of expressed mRNA in the absence of chemical substance", "setting": "yeast gene YPL171C", "result": 4.1}, {"measurement": "The level of expressed mRNA in the presence of chemical substance/The level of expressed mRNA in the absence of chemical substance", "setting": "yeast gene YPL240C", "result": 1.4}, {"measurement": "The level of expressed mRNA in the presence of chemical substance/The level of expressed mRNA in the absence of chemical substance", "setting": "yeast gene YPL262W, cells incubated two hours with the chemical substance", "result": 1.7}, {"measurement": "The level of expressed mRNA in the presence of chemical substance/The level of expressed mRNA in the absence of chemical substance", "setting": "yeast gene YPL275W, cells incubated two hours with the chemical substance", "result": 1.5}, {"measurement": "The level of expressed mRNA in the presence of chemical substance/The level of expressed mRNA in the absence of chemical substance", "setting": "yeast gene YPL276W, cells incubated two hours with the chemical substance", "result": 1.5}, {"measurement": "The level of expressed mRNA in the presence of chemical substance/The level of expressed mRNA in the absence of chemical substance", "setting": "yeast gene YPR048W, cells incubated two hours with the chemical substance", "result": 2.0}, {"measurement": "The level of expressed mRNA in the presence of chemical substance/The level of expressed mRNA in the absence of chemical substance", "setting": "yeast gene YPR184W, cells incubated two hours with the chemical substance", "result": 1.4}]}
